# Experimental data: patent publication US20190071670A1, “Methods Of Treatment For Alpha-1 Antitrypsin Deficiency” (Arrowhead Pharmaceuticals, Inc., priority 2016, published 2019)
# “And” between values parts separate entries of the source, which are not always exact repeats. Equal values may be shown once.
# System: hAAT
# Experiment: Serum hAAT protein levels in PiZ mice (ELISA)
# Type: in vivo, human (expressed in PiZ mice)
# Details: for Normalized serum hAAT levels / Serum hAAT normalized to Day 1 and control / Serum hAAT normalized to day 1: PiZ mice; for Normalized serum hAAT levels: normalized to day 1 and saline control; for Serum hAAT normalized to Day 1 and control: single IV 4 mg/kg + 8 mg/kg MLP delivery polymer; for Serum hAAT normalized to day 1: single IV 6 mg/kg with 6 mg/kg MLP delivery polymer; for Serum hAAT normalized to day 1 and controls: female PiZ mice, single IV 8 mg/kg + 8 mg/kg MLP delivery polymer
# Experimental: Human AAT protein levels in serum were monitored for 29 days. At the indicated times, blood samples were collected and assayed for hAAT by ELISA. Day 1 samples were collected prior to trigger administration. For mRNA analysis, 3-4 mice were euthanized at each of days 3, 8, 15, 22, and 29. For euthanized mice, cardiac stick were performed for serum isolation for AAT ELISA (200 μl serum). Half of the left lateral liver lobe was collected and snap-freeze in liquid nitrogen for RNA isolation. The remainder of the left lobes were embedded into paraffin blocks for PAS-D staining with hematoxylin as counter-stain. Serum hAAT levels in mice given AAT Duplex Pair SEQ ID NO: 5/6 were 95% reduced on day 8 and remained reduced to day 29, at which time they were 79% reduced. Mice given AAT Duplex Pair SEQ ID NO: 5/6 were euthanized at either day 3, 8, 15, 22 or 29. Mice given saline or Luciferase siRNA control (SEQ ID 7/8) were euthanized on day 29. Levels of hAAT mRNA in the livers were measured by RT-qPCR. The hAAT mRNA in mice given AAT Duplex Pair SEQ ID NO: 5/6 was reduced by 97% on day 3 and remained reduced on day 29, at which time levels were 56% reduced. The size of the globules and the area of the liver covered by globules was digitally quantitated from liver specimens stained with PAS-D. Duplex Pair SEQ ID NO: 5/6 treated mice had 70% smaller globules at day 15 and 62% smaller globules at day 29. The area of the liver covered with globules was 83% reduced on day 15 and 72% reduced on day 29 (FIG. 5).
substance,measurement,setting,value
"Duplex Pair SEQ ID NO: 5/6: double-stranded AAT RNAi agent: modified antisense strand SEQ ID NO: 5 annealed to Chol-TEG sense strand SEQ ID NO: 6 (antisense TGGAACUUGGUGAUGAUAUTT; sense UAUAUAUCAUCACCAAGUUCCAT; Chol-TEG on sense strand; chemical modifications; antisense strand of dsRNA; modified_base 7 /mod_base = “2′-3′ seco corresponding nucleotide”; modified_base 2,4,6,8,10,12,14,16,18 /mod_base = “2′-deoxy-2′-fluoro corresponding nucleoside”; modified_base 3,5,9,11,13,15,17,19 /mod_base = “2′-O-methyl corresponding nucleoside”; modified_base 21 /mod_base = “5′-phosphorothioate corresponding nucleotide”; sense strand of dsRNA; modified_base 2 /mod_base = “2′-hydroxy corresponding nucleoside”; modified_base 4,6,8,10,12,14,16,18,20,22 /mod_base = “2′-deoxy-2′-fluoro corresponding nucleoside”; …)",Normalized serum hAAT levels,"single IV 4 mg/kg + 4 mg/kg MLP, day 1",1.00
same,Normalized serum hAAT levels,"single IV 4 mg/kg + 4 mg/kg MLP, day 8",0.03 ± 0.01
same,Normalized serum hAAT levels,"single IV 4 mg/kg + 4 mg/kg MLP, day 15",0.23 ± 0.04
same,Normalized serum hAAT levels,"single IV 4 mg/kg + 4 mg/kg MLP, day 20",0.32 ± 0.05
same,Normalized serum hAAT levels,"single IV 4 mg/kg + 4 mg/kg MLP, day 29",0.66 ± 0.10
same,Normalized serum hAAT levels,"single IV 4 mg/kg + 4 mg/kg MLP, day 36",0.83 ± 0.06
same,Normalized serum hAAT levels,"single IV 4 mg/kg + 4 mg/kg MLP, day −7",0.68 ± 0.07
same,Serum hAAT normalized to Day 1 and control,Day 1,1.00
same,Serum hAAT normalized to Day 1 and control,Day 3,0.20 ± 0.04
same,Serum hAAT normalized to Day 1 and control,Day 8,0.05 ± 0.01
same,Serum hAAT normalized to Day 1 and control,Day 15,0.09 ± 0.01
same,Serum hAAT normalized to Day 1 and control,Day 22,0.28 ± 0.05
same,Serum hAAT normalized to Day 1 and control,Day 29,0.35 ± 0.05
same,Serum hAAT normalized to Day 1 and control,Day 35,0.81 ± 0.12
same,Serum hAAT normalized to Day 1 and control,Day −3,0.73 ± 0.13
same,Serum hAAT normalized to day 1,day 1 (reference),1.00
same,Serum hAAT normalized to day 1,"day 3, listed as AAT RNAi agent (SEQ ID NO: 5/6), 6 mg/kg",0.326 ± 0.021 and 0.274 ± 0.072
same,Serum hAAT normalized to day 1,day 10,0.105 ± 0.033
same,Normalized serum hAAT levels,"single IV 8 mg/kg + 2 mg/kg MLP, day 1",1.00
same,Normalized serum hAAT levels,"single IV 8 mg/kg + 2 mg/kg MLP, day 8",0.09 ± 0.05
same,Normalized serum hAAT levels,"single IV 8 mg/kg + 2 mg/kg MLP, day 15",0.59 ± 0.16
same,Normalized serum hAAT levels,"single IV 8 mg/kg + 2 mg/kg MLP, day 20",0.74 ± 0.10
same,Normalized serum hAAT levels,"single IV 8 mg/kg + 2 mg/kg MLP, day 29",0.87 ± 0.20
same,Normalized serum hAAT levels,"single IV 8 mg/kg + 2 mg/kg MLP, day 36",0.74 ± 0.08
same,Normalized serum hAAT levels,"single IV 8 mg/kg + 2 mg/kg MLP, day −7",0.70 ± 0.15
same,Normalized serum hAAT levels,"single IV 8 mg/kg + 4 mg/kg MLP, day 1",1.00
same,Normalized serum hAAT levels,"single IV 8 mg/kg + 4 mg/kg MLP, day 8",0.04 ± 0.02
same,Normalized serum hAAT levels,"single IV 8 mg/kg + 4 mg/kg MLP, day 15",0.27 ± 0.05
same,Normalized serum hAAT levels,"single IV 8 mg/kg + 4 mg/kg MLP, day 20",0.35 ± 0.05
same,Normalized serum hAAT levels,"single IV 8 mg/kg + 4 mg/kg MLP, day 29",0.80 ± 0.20
same,Normalized serum hAAT levels,"single IV 8 mg/kg + 4 mg/kg MLP, day 36",1.00 ± 0.20
same,Normalized serum hAAT levels,"single IV 8 mg/kg + 4 mg/kg MLP, day −7",0.70 ± 0.24
same,Normalized serum hAAT levels,"single IV 8 mg/kg + 8 mg/kg MLP, day 1",1.00
same,Normalized serum hAAT levels,"single IV 8 mg/kg + 8 mg/kg MLP, day 8",0.02 ± 0.00
same,Normalized serum hAAT levels,"single IV 8 mg/kg + 8 mg/kg MLP, day 15",0.13 ± 0.06
same,Normalized serum hAAT levels,"single IV 8 mg/kg + 8 mg/kg MLP, day 20",0.16 ± 0.04
same,Normalized serum hAAT levels,"single IV 8 mg/kg + 8 mg/kg MLP, day 29",0.43 ± 0.08
same,Normalized serum hAAT levels,"single IV 8 mg/kg + 8 mg/kg MLP, day 36",0.78 ± 0.23
same,Normalized serum hAAT levels,"single IV 8 mg/kg + 8 mg/kg MLP, day −7",0.89 ± 0.54
same,Serum hAAT normalized to day 1 and controls,"mice euthanized Day 3, Day 1",1.000
same,Serum hAAT normalized to day 1 and controls,"mice euthanized Day 3, Day 3",0.255 ± 0.040
same,Serum hAAT normalized to day 1 and controls,"mice euthanized Day 3, Day −2",1.068 ± 0.070
same,Serum hAAT normalized to day 1 and controls,"mice euthanized Day 8, Day 1",1.000
same,Serum hAAT normalized to day 1 and controls,"mice euthanized Day 8, Day 3",0.184 ± 0.025
same,Serum hAAT normalized to day 1 and controls,"mice euthanized Day 8, Day 8",0.054 ± 0.004
same,Serum hAAT normalized to day 1 and controls,"mice euthanized Day 8, Day −2",0.895 ± 0.129
same,Serum hAAT normalized to day 1 and controls,"mice euthanized Day 15, Day 1",1.000
same,Serum hAAT normalized to day 1 and controls,"mice euthanized Day 15, Day 3",0.243 ± 0.060
same,Serum hAAT normalized to day 1 and controls,"mice euthanized Day 15, Day 8",0.066 ± 0.023
same,Serum hAAT normalized to day 1 and controls,"mice euthanized Day 15, Day 15",0.095 ± 0.063
same,Serum hAAT normalized to day 1 and controls,"mice euthanized Day 15, Day −2",0.66 ± 0.121
same,Serum hAAT normalized to day 1 and controls,"mice euthanized Day 22, Day 1",1.000
same,Serum hAAT normalized to day 1 and controls,"mice euthanized Day 22, Day 3",0.202 ± 0.054
same,Serum hAAT normalized to day 1 and controls,"mice euthanized Day 22, Day 8",0.044 ± 0.010
same,Serum hAAT normalized to day 1 and controls,"mice euthanized Day 22, Day 15",0.056 ± 0.011
same,Serum hAAT normalized to day 1 and controls,"mice euthanized Day 22, Day 22",0.100 ± 0.039
same,Serum hAAT normalized to day 1 and controls,"mice euthanized Day 22, Day −2",0.779 ± 0.280
same,Serum hAAT normalized to day 1 and controls,"mice euthanized Day 29, Day 1",1.000
same,Serum hAAT normalized to day 1 and controls,"mice euthanized Day 29, Day 3",0.238 ± 0.062
same,Serum hAAT normalized to day 1 and controls,"mice euthanized Day 29, Day 8",0.052 ± 0.015
same,Serum hAAT normalized to day 1 and controls,"mice euthanized Day 29, Day 15",0.057 ± 0.016
same,Serum hAAT normalized to day 1 and controls,"mice euthanized Day 29, Day 22",0.103 ± 0.032
same,Serum hAAT normalized to day 1 and controls,"mice euthanized Day 29, Day 29",0.209 ± 0.071
same,Serum hAAT normalized to day 1 and controls,"mice euthanized Day 29, Day −2",0.653 ± 0.102
